Source: PMC12040169 (PLOS Biology, 2025)

assay: in vitro; details: human, hela cells, % viability

Compound	viability at 28.5 h, 10 µM [%]
Cc1ccc(OC(=O)CCC(=O)Nc2ccc(S(N)(=O)=O)cc2)cc1 [CBK264708]	95.1
CN(C)S(=O)(=O)c1ccc(C(=O)C2=C(O)C(=O)N(Cc3cccnc3)C2c2ccncc2)cc1 (stereo not drawn) [CBK264714]	95.4
O=C(CC1Sc2ccccc2NC1=O)Nc1ccc([N+](=O)[O-])c(F)c1 (stereo not drawn) [CBK264717]	85.5
Cc1cc(C(=O)Nc2nnc[nH]2)ccc1[N+](=O)[O-] [CBK264719]	99.7
COc1ccc(CN2CCC(N3CCN(c4ccccc4F)CC3)CC2)cc1OCc1ccccc1 [CBK264720G]	105
COc1ccc(CN2CCC(N3CCCCCC3)CC2)cc1OC [CBK264721G]	90.8
CC(NC(=O)c1c(Cl)c(Cl)c(Cl)c(Cl)c1C(=O)O)c1cccs1 (stereo not drawn) [CBK264722]	107
COc1ccc(C(=O)C2=C(O)C(=O)N(CCCN(C)C)C2c2ccc(Cl)c(Cl)c2)cc1 (stereo not drawn) [CBK264723]	94.4
COc1ccc(Cl)cc1NC(=O)CN(c1cc(C(F)(F)F)ccc1Cl)S(C)(=O)=O [CBK264724]	82.5
Cc1ccc(NC(=O)CN2C(=O)S/C(=C\c3cc(C)n(-c4cccc(C(=O)O)c4)c3C)C2=O)cc1 [CBK264725]	89.9
Cc1ccc(S(=O)(=O)N(CC(=O)Nc2ccccc2C)Cc2ccc(Cl)c(Cl)c2)cc1 [CBK264735]	93.3
Cc1ccc2nc(-c3ccccc3)c(CN3CCCC3)c(O)c2c1 [CBK264736]	106
COc1ccccc1N(CC(=O)Nc1ccc2c(c1)oc1ccccc12)S(=O)(=O)c1ccccc1 [CBK264737]	87.8
Cc1ccc(N(CC(O)CN2CCCC2)S(=O)(=O)c2ccccc2)cc1 (stereo not drawn) [CBK264739]	101
CCNC(=S)N1CCN(CCNC=C2C(=O)CC(c3ccco3)CC2=O)CC1 (stereo not drawn) [CBK264742]	91.7
O=C(/C=C/C=C/c1ccccc1)CC1(O)C(=O)N(Cc2cccc3ccccc23)c2ccccc21 (stereo not drawn) [CBK264744]	93.6
CC(=O)Nc1ccc(S(=O)(=O)Nc2ccc(S(=O)(=O)Nc3cc(C)ccc3C)cc2)cc1 [CBK264745]	98.4
CCCn1c(=N)n(CCOc2cccc(C)c2)c2ccccc21 [CBK264746B]	89.2
COc1ccc(OC)c(C2C(C(=O)c3ccccc3)=C(O)C(=O)N2CCN2CCOCC2)c1 (stereo not drawn) [CBK264748]	114
Cc1ncc([N+](=O)[O-])n1CCSc1nnc(SCc2ccccc2)s1 [CBK264751]	86.4
Cc1n[nH]c(O)c1C(c1cccc([N+](=O)[O-])c1)c1c(C)n[nH]c1O [CBK264753]	97.8
O=C(O)CCc1ccc(-c2ccc(F)cc2)n1-c1cc(Cl)ccc1Cl [CBK264754]	111
CCOC(=O)c1cnc2c(C)cc(C)cc2c1NCCN1CCOCC1 [CBK264757]	109
CC(=O)Nc1cccc(NC(=O)CSc2ccc(C(F)(F)F)cc2[N+](=O)[O-])c1 [CBK264758]	103
CC(C)(C)c1ccc(S(=O)(=O)N/N=C\c2ccc(Cl)cc2Cl)cc1 [CBK264759]	84.6
COc1ccc(C2CC(=O)C(=CNCCN3CCN(C(=O)c4ccccc4)CC3)C(=O)C2)cc1 (stereo not drawn) [CBK264762]	104
CC(=O)Nc1ccc(S(=O)(=O)N2CCN(c3ccc([N+](=O)[O-])c(N4CCOCC4)c3)CC2)cc1 [CBK264764]	109

Compound	viability at 28.5 h, 10 µM [%]
CC(Nc1nc(-c2ccc([N+](=O)[O-])cc2)nc2ccccc12)c1ccccc1 (stereo not drawn) [CBK264767]	88.3
Cc1cc(/C=C(/C#N)c2nc3ccccc3[nH]2)c(C)n1-c1ccc(S(N)(=O)=O)cc1 [CBK264769]	77.8
CC(=O)NS(=O)(=O)c1ccc(-c2ccc(/C=C(/C#N)c3nc4ccc(C)cc4[nH]3)o2)cc1 [CBK264771]	109
O=[N+]([O-])c1ccc(N2CCN(S(=O)(=O)N3CCCC3)CC2)c(Cl)c1 [CBK264772]	102
CCN(CC)S(=O)(=O)c1ccc(OC)c(NC(=O)C2c3ccccc3Oc3ccccc32)c1 [CBK264774]	101
CC1(C)CC(=O)C(C(=S)Nc2ccc(F)cc2)=C(NCc2ccc3c(c2)OCO3)C1 [CBK264779]	97.5
O=C(O)CCc1ccc(-c2cccs2)n1NC(=O)c1sc2ccccc2c1Cl [CBK264782]	96.1
CCCc1cc(=O)oc2cc(OCc3ccc(C(=O)O)o3)ccc12 [CBK264786]	108
O=[N+]([O-])c1ccc(-c2nc(NCc3cccnc3)c3ccccc3n2)cc1 [CBK264788]	100
O=C(COC(=O)C1CCC(N2C(=O)c3ccccc3C2=O)CC1)c1ccc(-c2ccccc2)cc1 (stereo not drawn) [CBK264789]	90.4
CCOc1ccccc1-n1c(CCC(=O)O)ccc1-c1cccs1 [CBK264794]	105
O=[N+]([O-])c1ccccc1S(=O)(=O)Nc1ccc(S(=O)(=O)Nc2ccccc2)cc1 [CBK264796]	106
CCOC(=O)c1cnc2c(C)cc(Cl)cc2c1NCCN(C)C [CBK264800]	90.7
Cc1cc(Cl)ccc1OCC(=O)NC(=S)Nc1cccc(-c2nc3ccccc3s2)c1 [CBK264802]	105
Cc1ccc(NC(=O)C(=O)NCCCN2CCOCC2)cc1Cl [CBK264806]	97.4
COc1ccc(C(=O)COC(=O)c2cccc(N3C(=O)C4C5C=C(C)C(C5)C4C3=O)c2)cc1 (stereo not drawn) [CBK264808]	94.1
Cc1ccc(NS(=O)(=O)c2ccc(NC(=O)c3ccc(CN4CCOCC4)cc3)cc2)c(C)c1 [CBK264815]	94.5
COCCNc1nc(-c2ccc([N+](=O)[O-])cc2)nc2ccccc12 [CBK264819]	109
Cc1ccc(-c2ccc(CCC(=O)O)[nH]2)cc1 [CBK264820]	109
Cc1ccccc1OCC(O)CNC(=O)c1ccccc1C(=O)O (stereo not drawn) [CBK264824]	94.8
O=[N+]([O-])c1ccc(N2CCN(S(=O)(=O)c3ccc4ccccc4c3)CC2)c(C(F)(F)F)c1 [CBK264827]	103
O=C(Nc1cccc(NC(=S)NC(=O)c2ccc(Cl)cc2Cl)c1)c1ccccc1F [CBK264828]	107
COc1ccccc1N(CC(O)CN1CCCC1)S(=O)(=O)c1ccccc1 (stereo not drawn) [CBK264829]	114
Cn1c(-c2c(CCC(=O)O)oc3cc(O)ccc3c2=O)nc2ccccc21 [CBK264831]	96
Cc1ccccc1N1CCN(C(=O)c2c(C)oc3cc4c(C(=O)N5CCN(c6ccccc6C)CC5)c(C)oc4cc23)CC1 [CBK264833]	89.2
NS(=O)(=O)c1ccc(NC(=O)CN2C(=O)S/C(=C\C=C\c3ccccc3)C2=O)cc1 [CBK264835]	94.6
Cc1ccc(NC(=O)C(=O)NCCCN2CCOCC2)cc1C [CBK264836]	106

Compound	viability at 28.5 h, 10 µM [%]
O=C(O)CCSc1nc(-c2ccccc2)c(-c2ccccc2)n1-c1ccccc1 [CBK264837]	113
CCc1cc2c(=O)c(-c3nc(C)cs3)c(CCC(=O)O)oc2cc1O [CBK264838]	108
Cc1cccc(C(=O)Nc2c(C(=O)Nc3ccc(Br)cc3)cnn2-c2ccccc2)c1 [CBK264839]	113
CC(C)c1ccccc1OCC(=O)OCCN1C(=O)c2ccccc2C1=O [CBK264841]	92.2
O=C(CN(C1CCCCC1)S(=O)(=O)c1ccc(Br)cc1)NCc1ccccn1 [CBK264846]	93.6
[O-][n+]1cc(-c2ccccc2)[n+]([O-])c2c1CCCC2 [CBK264847]	98.7
Cc1cccc(C)c1NC(=O)C(=O)NCCCN1CCOCC1 [CBK264850]	90.6
CN1CCN(C(=O)Nc2ccc(Cc3ccc(NC(=O)N4CCN(C)CC4)cc3)cc2)CC1 [CBK264852]	104
Cc1cc(C)c(NC(=O)CSCC(=O)Nc2ccc3ccccc3c2)c(C)c1 [CBK264856]	100
O=C(CN1C(=O)C2C3c4ccccc4C(c4ccccc43)C2C1=O)OCC(=O)c1ccc(F)cc1 (stereo not drawn) [CBK264861]	106
COc1cccc(C2C(C(=O)c3ccc(Br)cc3)=C(O)C(=O)N2CCCN2CCOCC2)c1 (stereo not drawn) [CBK264862]	103
O=S(=O)(c1ccc(F)cc1)N1CCN(c2ncnc3scc(-c4ccccc4)c23)CC1 [CBK264864]	103
COc1ccc(C(=O)C2=C(O)C(=O)N(CCN(C)C)C2c2ccncc2)c(C)c1 (stereo not drawn) [CBK264867]	92.5
OCCCNC(=S)NCCc1ccccc1 [CBK264869]	99.7
Cc1ccc(NC(=S)NCCc2ccc(S(N)(=O)=O)cc2)c(C)c1 [CBK264870]	93.9
COc1cc(C2C(C(=O)c3cccs3)=C(O)C(=O)N2Cc2cccnc2)cc(OC)c1OC (stereo not drawn) [CBK264874]	92.8
COCCCN1C(=O)C(O)=C(C(=O)c2ccc(C)o2)C1c1ccc(Br)cc1 (stereo not drawn) [CBK264876]	90.9
Cc1cc(OCC(C)C)ccc1C(=O)C1=C(O)C(=O)N(Cc2cccnc2)C1c1cccnc1 (stereo not drawn) [CBK264883]	97.6
O=C(COc1ccc2ccccc2c1)Oc1ccc2ccccc2c1 [CBK264885]	110
CC(C)Oc1ccc(C(=O)C2=C(O)C(=O)N(CCN(C)C)C2c2ccccc2F)cc1 (stereo not drawn) [CBK264886]	102
Cc1cc(Cl)ccc1NC(=S)NCCc1ccc(S(N)(=O)=O)cc1 [CBK264888]	88.5
O=C1CC(c2ccccc2)CC(NCc2ccc3c(c2)OCO3)=C1C(=S)Nc1ccccc1 (stereo not drawn) [CBK264890]	94.4
COc1ccc(-n2c(SC(CN3CCCCC3)CN3CCCC3=O)nc3ccccc3c2=O)cc1 (stereo not drawn) [CBK264891C]	87.8
COCCCN1C(=O)C(O)=C(C(=O)c2ccc(Cl)cc2)C1c1cccc(O)c1 (stereo not drawn) [CBK264892]	105
CCN(CC)CCCNc1c([N+](=O)[O-])c(=O)n(C)c2ccccc12 [CBK264893]	112
CC(=O)Nc1sc(/C(C#N)=C/c2cccc(Oc3ccccc3)c2)nc1-c1ccc(C)cc1 [CBK264895]	98.4

same assay, conditions: human, hela cells, % viability, bulk resorufin, single well

Compound	viability at 28.5 h, 10 µM [%]
C=CCN1C(=O)/C(=C/c2cc(Cl)c(OCc3cccc(C(=O)O)c3)c(OC)c2)C(=O)NC1=S [CBK264877G]	121
